Measurements reported in patent US20260209777A1, “TARGETING GLYCOSYLPHOSPHATIDYLINOSITOL (GPI) PATHWAY PROTEINS TO TREAT OVARIAN CANCER” (UNIVERSITY OF MASSACHUSETTS, priority 2023, published 2026).

Key:
GPAA1 = target: T1, GPAA1 (Homo sapiens, UniProt O43292); test: Cellular thermal stability shift assay (CETSA); type: binding; settings: OVCAR8 cells, bestatin 100 μM for 2 hours, relative to DMSO (FIG. 6B)
T1 construct: endogenous in cells; host or cells: OVCAR8 human ovarian cancer cells (Creative Biolabs, Cat #IOC-ZP305)
T1 sequence (O43292 1-621): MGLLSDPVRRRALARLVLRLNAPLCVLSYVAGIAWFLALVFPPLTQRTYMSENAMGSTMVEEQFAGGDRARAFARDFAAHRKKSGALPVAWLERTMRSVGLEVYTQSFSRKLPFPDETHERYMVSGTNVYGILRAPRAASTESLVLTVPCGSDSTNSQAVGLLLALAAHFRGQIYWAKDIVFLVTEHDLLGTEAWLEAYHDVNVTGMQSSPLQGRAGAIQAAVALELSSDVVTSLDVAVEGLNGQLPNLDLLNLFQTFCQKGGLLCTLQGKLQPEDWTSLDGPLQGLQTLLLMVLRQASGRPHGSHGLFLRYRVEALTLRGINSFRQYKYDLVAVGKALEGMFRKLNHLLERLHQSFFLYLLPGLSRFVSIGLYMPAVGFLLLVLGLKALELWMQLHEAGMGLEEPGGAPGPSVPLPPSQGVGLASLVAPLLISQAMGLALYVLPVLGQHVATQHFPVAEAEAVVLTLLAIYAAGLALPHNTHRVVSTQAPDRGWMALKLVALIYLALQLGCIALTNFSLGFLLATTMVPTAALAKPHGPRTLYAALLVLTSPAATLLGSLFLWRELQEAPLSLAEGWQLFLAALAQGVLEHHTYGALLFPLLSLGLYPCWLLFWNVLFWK
Protocol: CETSA: CETSA assays were performed as described previously (Jafari et al., Nat Protoc 2014, 9(9):2100-22). In brief, […] OVCAR8 cells were treated with DMSO or 100 μM bestatin for 2 hours. Cells (50 μl) were aliquoted in PCR tubes and incubated at room temperature (25° C.) or at a range of temperatures (37° C. to 65.2° C.) in a thermal cycler for 3 min and cooled to 4° C. Cells were lysed using Alpha SureFire Ultra Lysis Buffer (PerkinElmer, Cat #ASLU-LB) supplemented with Halt Protease Inhibitor Cocktail (ThermoFisher Scientific, Cat #78430). Insoluble proteins were separated by centrifugation at 15000×g for 30 mins at 4° C. Equal volumes of each sample were separated by SDS-PAGE and detected by immunoblotting blotting using an anti-GPAA1 polyclonal antibody (Invitrogen, Cat #PA5-100548). Three independent experiments were performed. Densitometry of the blots was performed using ImageJ software and the graph was plotted using GraphPad Prism 9.0.
Due to the predicted structural similarity between GPAA1 and M28-type metallopeptidases, we hypothesized that GPAA1 may be inhibited by bestatin and carried out a series of experiments to test this possibility. […] The ligand-bound proteins in the soluble fraction are analyzed by immunoblotting to quantify the changes in thermal stability.

[1] = test system: CD24 cell surface expression in MCF7 breast cancer cells; test: CD24 flow cytometry analysis in MCF7 cells; type: cell-based, human; settings: MCF7, 10 or 20 μM bestatin vs DMSO (FIG. 7D)
Protocol: Flow Cytometry Analysis: For cell surface protein staining, 1×10^5-1×10^6 cells were first incubated with Fc receptor blocking solution, Human TruStain FcX™ (BioLegend, Cat #422301) for 10 minutes at room temperature. Cells were washed once in FACS buffer (1×PBS, 1.0% bovine serum albumin (BSA) (Sigma) and 0.2% sodium azide (Sigma), and then incubated with antibodies (given below) for 30 minutes at 4° C. in the dark. Cells were also stained with 7-AAD (Biolegend, Cat #420404) for dead cell exclusion, and flow cytometry analysis was performed using a Bio-Rad ZE5 Cell Analyzer. Following antibodies used in this study (all antibodies were used at 1:50 dilution unless otherwise noted): APC anti-human CD24 (BioLegend, Cat #311118, clone ML5), PE anti-human CD24 (eBioscience, Cat #12-0247-42, clone SN3), APC anti-human CD47 (BioLegend, Cat #323124, clone CC2C6), APC anti-human § 2-microglobulin (BioLegend, Cat #395711, clone A17082A), PE anti-human HLA-A2 (MHC-class I) (BioLegend, Cat #343305, clone BB7.2), APC anti-human CD11b (BioLegend, Cat #982604, clone ICRF44), APC anti-mouse F4/80 antibody (BioLegend, Cat #123116, clone BM8), APC-streptavidin (Thermo Fisher Scientific, Cat #SA1005, 1:100 dilution), PE anti-Calreticulin (Invitrogen, Catalog #MA5-15382, 1:200 dilution). […]

thermal stability of GPAA1 (GPAA1): increased
SMILES: CC(C)C[C@H](NC(=O)[C@@H](O)[C@H](N)Cc1ccccc1)C(=O)O [bestatin]
CD24 cell surface expression (MFI) [1]: did not decrease
